Tests used:
TrkC kinase = TrkC kinase (Homo sapiens, UniProt Q16288); test: TrkC kinase biochemical activity assay (similar to TrkA assay); conditions: read-out: Biochemical Inhibition IC50 TrkC
Experimental: In one assay the biochemical activity IC50 values are determined with respect to inhibition of TrkA kinase activity, where inhibition of phosphorylation of a peptide substrate is measured as a function of compound concentration. Compounds to be tested, dissolved in DMSO (1 μL), are added to a white 384-well plate (Costar #3705). Working stocks of TrkA kinase (UBI), biotin-(E4Y)10 substrate (Upstate Biotech, Cat#12-440), and ATP (Sigma, Cat#A-3377) are prepared in 25 mM Hepes pH 7.5, 10 mM MnCl2, 1 mM DTT, 0.01% BSA, and 0.01% Tween-20. All components are added to the 384-well plate for a final concentration of 1 ng/well TrkA, 30 nM biotin-(E4Y)10 and 100 μM ATP in a volume of 20 μL. Each sample is at 5% DMSO. The plate is shaken for 1 minute at 1200 rpm, spun for 1 minute at 1000 rpm, then incubated for 40 minutes at room temperature. Just before use, working stocks of donor and acceptor beads from the AlphaScreen PY20 Detection Kit (PerkinElmer, Cat#676601M) are prepared in 25 mM Hepes pH 7.5, 100 mM EDTA. 0.01% BSA. Donor Beads solution (Streptavidin beads) is added (5 μL) to each well to final bead concentration of 10 μg/mL. The plate is incubated at room temperature for 20 minutes. Acceptor Beads solution (PY20 coated beads) are then added to each well (5 μL) to a final concentration of bead at 10 μg/mL. The plates are incubated at room temperature for 60 minutes. Fluorescence signal is recorded on the Envision reader. Phosphorylated substrate results in binding of the PY20 antibody and association of the donor and acceptor beads such that signal correlates with kinase activity. The signal vs. compound concentration is used to determine the IC50. Similar assays are used for TrkB and Trk C kinase.

BCR-FMS BaF3 cells = test: Splenomegaly mouse model, BCR-FMS BaF3 cells; assay type: in vivo
Experimental: (§1) BaF3 cells are engineered with any of BCR-FMS, BCR-TRK1 or BCR-TRK2 to assess in vivo inhibitory effects of Fms, TrkA or TrkB inhibition, respectively. BaF3 cells are maintained in growth media (RPMI containing 10% FBS, 1% PenStrep, 1% NEAA, and 1% L-Glutamine, supplemented with 5% murine IL-3 and 1 mg/mL G418). Four days prior to start, 2×10^6 cells are inoculated into a T150 vented flask using the growth media and incubated at 37° C. in 5% CO2 for three days. One day prior to start, cells are collected by centrifugation and are suspended in growth media without IL-3. On the day of cell implant, the cells are collected by centrifugation, rinsed 3×20 mL with RPMI, then are suspended in 5.4 mL of media and counted, then adjusted with additional RPMI as needed to give 5×10^7 cells/mL. On day 1, female nu/nu mice at 5-6 weeks of age are injected intravenously with BaF3 cells injected injecting 0.1 mL (5×10^6) cells in the tail vein (mice without cell injected are included as control group). Compound stocks in dimethylsulfoxide are stored at room temperature protected from light. Stocks are diluted prior to dosing, diluting 22 μL of compound stock into 858 μL of diluent (or 50 μL into 1950 μL) to provide vehicle of 1.0% Polysorbate 80, 0.5% hydroxypropyl methyl cellulose, with final dimethylsulfoxide at 2.5% in all dosing suspensions and vehicle control. Dosing suspension is prepared prior to use, mixing by inversion and sonication in a water bath to make a uniform suspension. On days 10-18, mice are treated with vehicle only or the desired level of compound in vehicle, ˜0.2 mL per 25 gm mouse, once a day by oral gavage, or in some instances, twice per day. On day 18, mice are administered a final dose and two hours later a plasma sample is taken. At four hours following the final dose, mice are sacrificed, an additional plasma sample is collected and mouse spleens are removed and weighed. The average spleen weight of vehicle control group mice is compared to the average spleen weight of the test compound mice. Percent spleen growth inhibition is calculated as 100×[(spleen weight vehicle control-spleen weight test compound)/spleen weight vehicle control]. In some instances, the compounds were not tested in all of the assays as indicated by NA in the table below.

BCR-TRK2 BaF3 cells = test: Splenomegaly mouse model, BCR-TRK2 BaF3 cells; assay type: in vivo
Experimental: as §1

BCR-TRK1 BaF3 cells = test: Splenomegaly mouse model, BCR-TRK1 BaF3 cells; assay type: in vivo
Experimental: as §1, with “The average spleen weight of vehicle control group mice is compared to the average spleen weight of the test compound mice.” left out, “In some instances, the compounds were not tested in all of the assays as indicated by NA in the table below.” left out

[1] = dosed once per day at 10 mg per kg

TrkC kinase, sequence (Q16288 32-839): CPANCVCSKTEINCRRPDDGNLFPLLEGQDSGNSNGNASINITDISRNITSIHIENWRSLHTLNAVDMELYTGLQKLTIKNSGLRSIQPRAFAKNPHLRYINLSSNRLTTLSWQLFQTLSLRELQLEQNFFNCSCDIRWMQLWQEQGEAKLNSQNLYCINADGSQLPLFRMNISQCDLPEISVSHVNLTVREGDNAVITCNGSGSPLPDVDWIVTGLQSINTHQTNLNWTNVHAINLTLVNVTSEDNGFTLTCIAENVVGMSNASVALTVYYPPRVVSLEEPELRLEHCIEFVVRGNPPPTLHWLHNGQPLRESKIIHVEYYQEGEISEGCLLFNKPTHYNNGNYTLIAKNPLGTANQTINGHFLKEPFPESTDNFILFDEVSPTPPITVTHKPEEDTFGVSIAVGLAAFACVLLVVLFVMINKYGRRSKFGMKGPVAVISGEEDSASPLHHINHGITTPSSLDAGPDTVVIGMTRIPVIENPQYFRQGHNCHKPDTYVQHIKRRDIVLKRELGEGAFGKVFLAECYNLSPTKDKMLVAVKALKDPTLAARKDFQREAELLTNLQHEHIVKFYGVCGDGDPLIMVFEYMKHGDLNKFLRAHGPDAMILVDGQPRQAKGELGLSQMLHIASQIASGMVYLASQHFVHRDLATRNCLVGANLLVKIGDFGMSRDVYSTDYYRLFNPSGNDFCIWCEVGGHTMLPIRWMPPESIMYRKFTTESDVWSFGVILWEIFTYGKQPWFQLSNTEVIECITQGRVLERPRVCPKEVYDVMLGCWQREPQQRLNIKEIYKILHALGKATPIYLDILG

Compound	IC50 (TrkC kinase) [nM]	% spleen growth inhibition, Fms (BCR-FMS BaF3 cells; [1]) [%]	% spleen growth inhibition, TrkB (BCR-TRK2 BaF3 cells; [1]) [%]	% spleen growth inhibition, Fms (BCR-FMS BaF3 cells; dosed at 30 mg/kg) [%]	% spleen growth inhibition, TrkA (BCR-TRK1 BaF3 cells; dosed at 30 mg/kg) [%]	% spleen growth inhibition, TrkA (BCR-TRK1 BaF3 cells; [1]) [%]	% spleen growth inhibition, TrkB (BCR-TRK2 BaF3 cells; dosed at 30 mg/kg) [%]
COc1ccc(Nc2ccc(Cc3c[nH]c4ncc(C)cc34)c(F)n2)cn1 [Compound P-3019, [6-fluoro-5-(5-methyl-1H-pyrrolo[2,3-b]pyridin-3-ylmethyl)-pyridin-2-yl]-(6-methoxy-pyridin-3-yl)-amine]	< 100	40	14				
CCOc1ccc(Nc2ncc(Cc3c[nH]c4ncc(C)cc34)cn2)cn1 [Compound P-3027, (6-Ethoxy-pyridin-3-yl)-[5-(5-methyl-1H-pyrrolo[2,3-b]pyridin-3-ylmethyl)-pyrimidin-2-yl]-amine]	< 100	42	2				
COc1ncnc2[nH]cc(Cc3ccc(Nc4ccc(C5CC5)nc4)nc3F)c12 [Compound P-4004, (6-Cyclopropyl-pyridin-3-yl)-[6-fluoro-5-(4-methoxy-7H-pyrrolo[2,3-d]pyrimidin-5-ylmethyl)-pyridin-2-yl]-amine]		36	41	70	40	16	91
CCOc1ccc(Nc2ccc(Cc3c[nH]c4ncnc(OC)c34)c(F)n2)cn1 [Compound P-4005, (6-Ethoxy-pyridin-3-yl)-[6-fluoro-5-(4-methoxy-7H-pyrrolo[2,3-d]pyrimidin-5-ylmethyl)-pyridin-2-yl]-amine]		65	35			25	
CCOc1ccc(Nc2ccc(Cc3c[nH]c4ncnc(C)c34)c(F)n2)cn1 [Compound P-4006, (6-Ethoxy-pyridin-3-yl)-[6-fluoro-5-(4-methyl-7H-pyrrolo[2,3-d]pyrimidin-5-ylmethyl)-pyridin-2-yl]-amine]		55	21				
CCc1ccc(Nc2ccc(Cc3c[nH]c4ncnc(OC)c34)c(F)n2)cn1 [Compound P-4007, (6-Ethyl-pyridin-3-yl)-[6-fluoro-5-(4-methoxy-7H-pyrrolo[2,3-d]pyrimidin-5-ylmethyl)-pyridin-2-yl]-amine]		28	19				
COc1ccc(Nc2ccc(C(=O)c3c[nH]c4ncnc(C5CC5)c34)c(F)n2)cn1 [Compound P-4022, (4-cyclopropyl-7H-pyrrolo[2,3-d]pyrimidin-5-yl)-[2-fluoro-6-(6-methoxy-pyridin-3-ylamino)-pyridin-3-yl]-methanone]		42	33				
CCc1ccc(Nc2ccc(Cc3c[nH]c4ncnc(C5CC5)c34)c(F)n2)cn1 [Compound P-4028, [5-(4-Cyclopropyl-7H-pyrrolo[2,3-d]pyrimidin-5-ylmethyl)-6-fluoro-pyridin-2-yl]-(6-ethyl-pyridin-3-yl)-amine]		86	88				
Cc1ccc(Nc2ccc(Cc3c[nH]c4ncnc(C5CC5)c34)c(F)n2)cn1 [Compound P-4030, [5-(4-Cyclopropyl-7H-pyrrolo[2,3-d]pyrimidin-5-ylmethyl)-6-fluoro-pyridin-2-yl]-(6-methyl-pyridin-3-yl)-amine]		58	50				

Source: patent US8901118B2, “Compounds and methods for kinase modulation, and indications therefor” (Plexxikon Inc., priority 2010, dated 2014)
